Eight compounds from PMC10724237, “Identification of 5-HT2A receptor signaling pathways associated with psychedelic potential” (Nature Communications, 2023) can be followed below.

Where two headings read alike, the source gives them in different places.

The target in test [1] is T1, 5-HT2A receptor (5-HT2AR) (Homo sapiens, UniProt P28223).
T1 construct: gene HTR2A; full-length receptor in HEK293T; co-expressed Galphaq-RLuc8/Gbeta1/Ggamma1-GFP2 for Gq dissociation; C-terminal RLuc8 fusion for beta-arrestin2 recruitment
T1 sequence (P28223 whole entry, the tested form may be a part): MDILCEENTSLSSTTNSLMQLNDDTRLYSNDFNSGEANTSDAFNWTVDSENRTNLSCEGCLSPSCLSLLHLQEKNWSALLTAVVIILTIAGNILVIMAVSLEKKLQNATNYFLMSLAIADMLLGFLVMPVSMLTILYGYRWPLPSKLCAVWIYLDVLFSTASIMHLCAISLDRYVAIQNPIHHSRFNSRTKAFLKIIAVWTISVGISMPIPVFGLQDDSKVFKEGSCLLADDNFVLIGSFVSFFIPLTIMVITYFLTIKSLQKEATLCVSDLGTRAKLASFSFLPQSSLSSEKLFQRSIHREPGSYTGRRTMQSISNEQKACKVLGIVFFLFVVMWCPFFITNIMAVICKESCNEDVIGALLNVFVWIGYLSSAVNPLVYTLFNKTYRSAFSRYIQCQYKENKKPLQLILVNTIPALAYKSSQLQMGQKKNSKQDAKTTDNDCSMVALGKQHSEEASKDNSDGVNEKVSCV
Format: cell-based.

In test [2] the target is T2, 5-HT2C receptor (5-HT2CR) (Homo sapiens, UniProt P28335).
T2 construct: gene HTR2C; full-length receptor in HEK293T with Galphaq-RLuc8/Gbeta1/Ggamma1-GFP2
T2 sequence (P28335 33-458): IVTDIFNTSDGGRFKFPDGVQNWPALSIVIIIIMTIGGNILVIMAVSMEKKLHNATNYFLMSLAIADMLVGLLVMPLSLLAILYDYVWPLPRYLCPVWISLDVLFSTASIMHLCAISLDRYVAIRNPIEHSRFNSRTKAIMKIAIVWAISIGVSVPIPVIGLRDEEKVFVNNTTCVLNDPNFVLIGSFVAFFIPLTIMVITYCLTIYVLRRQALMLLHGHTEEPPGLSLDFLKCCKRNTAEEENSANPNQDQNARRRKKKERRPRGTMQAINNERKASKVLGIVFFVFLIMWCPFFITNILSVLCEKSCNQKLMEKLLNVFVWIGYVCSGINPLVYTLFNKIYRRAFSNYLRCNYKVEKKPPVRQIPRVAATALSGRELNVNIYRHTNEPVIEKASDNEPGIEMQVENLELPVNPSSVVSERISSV
As to the kind of experiment: Gq dissociation BRET2 in HEK293T. The class given is cell-based. Particulars: agonist; 37 °C, 60 min. A general note: BRET reads energy transfer from a luciferase to a nearby fluorophore.

Test [3] concerns the target T3, 5-HT2B receptor (5-HT2BR) (Homo sapiens, UniProt P41595).
T3 construct: gene HTR2B; full-length receptor in HEK293T with Galphaq-RLuc8/Gbeta1/Ggamma1-GFP2
As to the kind of experiment: Gq dissociation BRET2 in HEK293T. The class given is cell-based. Particulars: partial agonist; 37 °C, 60 min.

For test [4], the target named is T1, 5-HT2A receptor (5-HT2AR). In words: competition radioligand binding (NIMH PDSP). Particulars: competitive.
Test [5] has as its target T1, 5-HT2A receptor (5-HT2AR). As to the kind of experiment: Gq dissociation BRET2 in HEK293T. The following applies: 37 °C. The class given is cell-based.

T3 sequence (P41595 whole entry): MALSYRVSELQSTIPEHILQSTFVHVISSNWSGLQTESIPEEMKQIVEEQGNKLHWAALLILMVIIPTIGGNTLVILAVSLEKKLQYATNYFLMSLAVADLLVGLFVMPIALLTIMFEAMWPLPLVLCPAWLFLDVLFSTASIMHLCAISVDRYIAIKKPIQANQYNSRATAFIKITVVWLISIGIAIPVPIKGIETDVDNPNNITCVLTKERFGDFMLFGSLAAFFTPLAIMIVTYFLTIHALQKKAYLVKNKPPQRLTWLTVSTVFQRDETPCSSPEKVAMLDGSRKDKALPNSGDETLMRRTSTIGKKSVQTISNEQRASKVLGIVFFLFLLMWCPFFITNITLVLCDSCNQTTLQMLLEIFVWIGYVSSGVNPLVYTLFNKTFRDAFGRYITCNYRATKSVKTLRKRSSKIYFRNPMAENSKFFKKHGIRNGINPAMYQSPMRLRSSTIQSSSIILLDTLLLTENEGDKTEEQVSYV

`COc1ccc2[nH]cc(CCN(C)C)c2c1` [5-MeO-DMT, 5-methoxy-N,N-dimethyltryptamine]: the EC50 – broadly, the concentration needed to bring the measured effect to its halfway point – in test [1] (agonist, 37 °C, 60 min) is given as “(E) Psilocin, (F) DMT, (G) 5-MeO-DMT”.

As to `CN(C)CCc1c[nH]c2ccccc12` [DMT], the EC50 result in test [1] is “(E) Psilocin, (F) DMT, (G) 5-MeO-DMT”. Consider `CN(C)CCc1c[nH]c2cccc(O)c12` [Psilocin], for which the EC50 result in test [1] (agonist, 37 °C, 60 min) is given as “(E) Psilocin, (F) DMT, (G) 5-MeO-DMT”. `COc1cc([N+](=O)[O-])c(OC)cc1CCNCc1ccccc1` [compound 2, 25N-NB] returned an EC50 in test [2] of 8.3 nM. The EMAX in test [3] is 32 % of 5-HT. As for `COc1cc([N+](=O)[O-])c(OC)cc1CCNCc1ccccc1I` [compound 10, 25N-NBI], in test [4], the pKi result was “selectivity for 5-HT2AR over 5-HT2BR and 5-HT2CR in competitive binding studies”. As for `COc1cc(CCNCc2cccc3ccccc23)c(OC)cc1C` [compound 26, 25D-N1-Nap], the EMAX in test [5] (partial agonist) was 34.3 % of 5-HT.

Turning to `COc1cc(OC)c(OC)cc1CCNCc1ccccc1OC` [compound 32], the EMAX in test [5] (agonist) is listed as 99.9 % of 5-HT.

In the case of `COc1cc(OC)c(OC)cc1CCNCc1cccc(I)c1` [compound 34, 25O-NB-3-I], in test [5] (partial agonist), the EMAX is reported as 51.7 % of 5-HT.
